# Data taken from article PMC4666032, “KPT-330, a potent and selective exportin-1 (XPO-1) inhibitor, shows antitumor effects modulating the expression of cyclin D1 and survivin in prostate cancer models” (BMC Cancer, 2015).
# Experiments:
# Type in all cases: cell-based
# 22rv1 = experiment: Growth/viability assay, IC50 at 72 h; settings: Homo sapiens
# From the text: (§1) Four commercial (LnCaP, 22rv1, DU145 and PC3) and twelve non-commercial (LAPC-4 [44], CWR22, PCb2 [45], PC3Lymphnode, PC3M, PC3M-pro4 [46] and PC3M-Ln4 [47], LnCaP-104S [47], LnCaP104R1 [47], LnCaP-C81 [47], C4-2B [48], VCAP [49] and DuCaP [[49]) cell lines were selected for the in vitro experimental studies for their biological characteristics: LAPC-4 (Androgen receptor [AR] positive, androgen dependent with low Akt/mTOR activities, p53 wt); LnCaP (AR positive, androgen dependent with high Akt/mTOR activities, p53 wt); LnCaP-C81 and LnCaP-C4-2B (AR positive, androgen independent with high Akt/mTOR activities, p53 wt); 22rv1 (AR positive, androgen independent with low Akt/mTOR activities, p53 wt); PC3 (AR negative, with high Akt/mTOR activities and no p53 function (p53 del) and DU145 (AR negative, with low Akt/mTOR activities and mutant p53). PC3 and DU145 have been also transfected with AR to obtain PC3AR [50] and DU-AR [51]. Benign prostatic hyperplasia line (BPH1), and Prostatic epithelial lines (EPN and RWPE-1) were used as non-neoplastic controls. Cells were routinely cultured in appropriate medium supplemented with 10 % fetal bovine serum (FBS), 1 % pen-strep and 1 % L-glutamine (Invitrogen Corporation, Carlsbad, CA). To minimize the risk to work with misidentified and/or contaminated cell lines, DNA profiling was periodically carried out in-house to authenticate cell cultures. DNA was isolated from cell lines using a standard DNA isolation kit. STR profiling was performed by using GenePrint® 10 System (Promega Corporation, Madison, WI). An eight-capillary 3500 Genetic Analyzer (Applied Biosystems Life Technologies Europe BV, Monza, Italy) was used to separate and identify alleles using standard procedures. GenePrint® 10 System allows co-amplification and detection of eight human loci required by the guidelines ASN-0002. For non-commercial cell lines, the authentication process was carried out by comparing STR-fingerprints with those published by Adri van Bokhoven and co-workers. In addition, cell lines were stocked at very low passages and used at <15-20 subcultures.
# (§2) Cells were seeded at a density of 2 x 10^4 cells/mL in 24-well plates. Cells were left to attach and grow in 5 % FCS DMEM for 24 h. After this time, cells were maintained in the appropriate culture conditions. Morphological controls were performed every day with an inverted phase-contrast photomicroscope (Nikon Diaphot, Tokyo, Japan) before cell trypsinization and counting. Cells were trypsinized and resuspended in 1.0 ml of saline, then counted using a NucleoCounter™ NC-100 (automated cell counter systems, Chemotec, Gydevang, Denmark). The effect on cell proliferation was measured by taking the mean cell number with respect to controls over time for the different treatment groups.
# (§3) Viable cells were counted by using the NucleoCounter™ NC-100 (automated cell counter systems, Chemotec, Cydevang, DK). Apoptosis was evaluated by using Tali® Apoptosis Kit - Annexin V Alexa Fluor® 488 & Propidium Iodide-based, (Life Technologies Italia, Monza, Italy). Stained cells were then measured on a Tali® Image-Based Cytometer. Apoptosis was further confirmed by FACS analysis following the instructions of the manufacturer.
# (§4) Six SINE analogs KPT-127, KPT-185, KPT-205, KPT-227, KPT251 and KPT-330 sharing a trifluoromethyl phenyl triazole scaffold, were investigated for their growth inhibitory and apoptotic potential in our PCa cell panel. Therefore, the effects of these XPO1 inhibitors were evaluated on the growth of PCa cell lines performing dose- and time-dependent studies. To examine the dose-dependent effects of these compounds, we treated cells with varying doses of the compounds (0, 1, 10, 50, 100, 500 and 1000 nM) and assessed viability at 72 hours after treatment. The IC50 for each compound was then calculated. […]
# BPH-1 = experiment: Growth/viability assay, IC50 at 72 h; settings: Homo sapiens
# From the text: as §1, §2, §3, §4
# C4-2B = experiment: Growth/viability assay, IC50 at 72 h; settings: Homo sapiens, Fig. 2g
# From the text: as §1, §2, §3, §4
# CWR22 = experiment: Growth/viability assay, IC50 at 72 h; settings: Homo sapiens; CWR22, Fig. 2g
# From the text: as §1, §2, §3, §4
# DU-AR = experiment: Growth/viability assay, IC50 at 72 h; settings: Homo sapiens, Fig. 2g
# From the text: as §1, §2, §3, §4
# DU145 = experiment: Growth/viability assay, IC50 at 72 h; settings: Homo sapiens, DU-145; DU145, Fig. 2g
# From the text: as §1, §2, §3, §4
# DuCaP = experiment: Growth/viability assay, IC50 at 72 h; settings: Homo sapiens, Fig. 2g
# From the text: as §1, §2, §3, §4
# EPN = experiment: Growth/viability assay, IC50 at 72 h; settings: Homo sapiens, Fig. 2g
# From the text: as §1, §2, §3, §4
# LAPC-4 = experiment: Growth/viability assay, IC50 at 72 h; settings: Homo sapiens
# From the text: as §1, §2, §3, §4
# LnCaP-104S = experiment: Growth/viability assay, IC50 at 72 h; settings: Homo sapiens, Fig. 2g
# From the text: as §1, §2, §3, §4
# LnCaP-C81 = experiment: Growth/viability assay, IC50 at 72 h; settings: Homo sapiens; C-81, Fig. 2g
# From the text: as §1, §2, §3, §4
# LnCaP104R1 = experiment: Growth/viability assay, IC50 at 72 h; settings: Homo sapiens; 104R1, Fig. 2g
# From the text: as §1, §2, §3, §4
# LnCaP = experiment: Growth/viability assay, IC50 at 72 h; settings: Homo sapiens
# From the text: as §1, §2, §3, §4
# PC3AR = experiment: Growth/viability assay, IC50 at 72 h; settings: Homo sapiens, PC3/AR, Fig. 2g
# From the text: as §1, §2, §3, §4
# PC3M-Ln4 = experiment: Growth/viability assay, IC50 at 72 h; settings: Homo sapiens; PC3M-Ln4, Fig. 2g
# From the text: as §1, §2, §3, §4
# PC3M-pro4 = experiment: Growth/viability assay, IC50 at 72 h; settings: Homo sapiens; PC3M-pro4, Fig. 2g
# From the text: as §1, §2, §3, §4
# PC3 = experiment: Growth/viability assay, IC50 at 72 h; settings: Homo sapiens, PC-3
# From the text: as §1, §2, §3, §4
# PCb2 = experiment: Growth/viability assay, IC50 at 72 h; settings: Homo sapiens; PCb2, Fig. 2g
# From the text: as §1, §2, §3, §4
# RWPE-1 = experiment: Growth/viability assay, IC50 at 72 h; settings: Homo sapiens; RWPE-1, Fig. 2g
# From the text: as §1, §2, §3, §4
# VCaP = experiment: Growth/viability assay, IC50 at 72 h; settings: Homo sapiens, Fig. 2g
# From the text: as §1, §2, §3, §4
# PCa cell lines = experiment: Growth inhibition across the PCa cell panel; settings: Homo sapiens; 72 hours, range across the cell panel; read-out: IC50 values, range over PCa cell lines
# From the text: as §1, with “STR profiling was performed by using GenePrint® 10 System (Promega Corporation, Madison, WI). An eight-capillary 3500 Genetic Analyzer (Applied Biosystems Life Technologies Europe BV, Monza, Italy) was used to separate and identify alleles using standard procedures. GenePrint® 10 System allows co-amplification and detection of eight human loci required by the guidelines ASN-0002. For non-commercial cell lines, the authentication process was carried out by comparing STR-fingerprints with those published by Adri van Bokhoven and co-workers. In addition, cell lines were stocked at very low passages and used at <15-20 subcultures.” left out
# Cells were seeded at a density of 2 x 10^4 cells/mL in 24-well plates. […] Cells were trypsinized and resuspended in 1.0 ml of saline, then counted using a NucleoCounter™ NC-100 (automated cell counter systems, Chemotec, Gydevang, Denmark). The effect on cell proliferation was measured by taking the mean cell number with respect to controls over time for the different treatment groups.
# as §3, with “Apoptosis was further confirmed by FACS analysis following the instructions of the manufacturer.” left out
# as §4
Compound,"IC50 (22rv1; 22rv1, Fig. 2g)","IC50 (BPH-1; BPH-1, BPH1, Fig. 2g)","IC50 (BPH-1; BPH-1, 72 hours, Fig. 2a-f)",IC50 (C4-2B),IC50 (CWR22),IC50 (DU-AR),IC50 (DU145),IC50 (DuCaP),IC50 (EPN),"IC50 (LAPC-4; LAPC4, LAPC-4, Fig. 2g)",IC50 (LnCaP-104S),IC50 (LnCaP-C81),IC50 (LnCaP104R1),IC50 (LnCaP; Fig. 2g),IC50 (PC3AR),IC50 (PC3M-Ln4),IC50 (PC3M-pro4),"IC50 (PC3; PC3, Fig. 2g)",IC50 (PCb2),IC50 (RWPE-1),also measured
FC(F)(F)c1cc(-c2ncn(/C=C\c3nnco3)n2)cc(C(F)(F)F)c1 [KPT-251],361 nM,> 1000 nM,> 1000 nM,200 nM,480 nM,300 nM,360 nM,210 nM,1000 nM,628 nM,200 nM,240 nM,270 nM,257 nM,260 nM,210 nM,355 nM,300 nM,320 nM,1000 nM,"IC50 (22rv1; 22rv1, 72 hours, Fig. 2a-f): 361 ± 59 nM; IC50 (LAPC-4; LAPC4, 72 hours, Fig. 2a-f): 628 ± 123 nM; IC50 (LnCaP; 72 hours, Fig. 2a-f): 257 ± 82 nM; IC50 (PC3; PC3, 72 hours, Fig. 2a-f): 380 ± 39 nM; IC50 (VCaP): 440 nM; IC50 (PCa cell lines): 150 to 300 nM"
O=C(/C=C\n1cnc(-c2cc(C(F)(F)F)cc(C(F)(F)F)c2)n1)NNc1cnccn1 [KPT-330],102 nM,> 1000 nM,> 1000 nM,66 nM,160 nM,124 nM,105 nM,160 nM,800 nM,365 nM,130 nM,80 nM,83 nM,171 nM,122 nM,90 nM,118 nM,103 nM,114 nM,1000 nM,IC50 (VCaP): 120 nM; IC50 (PCa cell lines): 43 to 201 nM
